Key:
[1] = system: carrageenan-λ induced pleurisy; assay: carrageenan-λ induced lung (pleural cavity) inflammation; type: in vivo, CD1 male mice; conditions: for number of neutrophils relative to negative control group (set at 100%): exudate 4 h after
From the text: Treatment of lung inflammation. Three compounds, 3β,16α-dihydroxy-17-oxoandrostane, 3α,16β,17β-trihydroxyandrostane and 3α,16α,17α-trihydroxyandrostane were used to treat inflammation in mice essentially as described (D. Auci et al., Ann. New York Acad. Sci. 1051:730-742 2005). Five to 8 week old CD1 male mice (Charles River, Calco, Italy) were used for the study. The animals were housed in a controlled environment and provided with standard rodent chow and water. Animal care was in compliance with applicable regulations on protection of animals. Mice were allocated into one of the following groups: (1) mice treated with 2% carrageenan-k in saline (carrageenan-λ treated control group), (2) mice treated with 0.1 mg, 0.01 mg or 0.001 mg 3β,16α-dihydroxy-17-oxoandrostane by subcutaneous (s.c.) injection 24 h and 1 h before carrageenan-λ administration, (3) mice treated with 0.1 mg, 0.01 mg or 0.001 mg of 3α,16α,17α-trihydroxyandrostane by s.c. injection 24 and 1 h before carrageenan; (4) mice treated with 0.1 mg, 0.01 mg or 0.001 mg […],16β,17β-trihydroxyandrostane by s.c. injection 24 h and 1 h before carrageenan-λ administration; (5) mice treated with vehicle (0.1% carboxymethylcellulose, 0.9% saline, 2% tween 80, 0.05% phenol) s.c. 24 h and 1 h before carrageenan-λ administration; (6) mice treated with rabbit anti-mouse polyclonal anti-TNF-α antibody (200 μg) given as an intraperitoneal bolus 24 h and 1 h before carrageenan-λ administration (positive control group); and (7) sham-operated mice that were not treated with carrageenan-λ. Each group consisted of 10 mice. All treatments were given in a final volume of 100 μL. Lung (pleural cavity) inflammation was induced as follows. The mice were anaesthetised with isoflurane and a skin incision was made at the level of the left sixth intercostal space. The underlying muscle was dissected and either 0.1 mL saline (control) or 0.1 mL saline containing 2% λ-carrageenan was injected into the pleural cavity. The carrageenan-λ is a potent inducer of inflammation, which is manifested in this protocol by accumulation of fluid and neutrophils in the pleural cavity. The incision was closed with a suture and the animals were allowed to recover.
At 4 h after the injection of carrageenan-λ, the animals were euthanized by exposure to CO2. The chest was carefully opened and the pleural cavity rinsed with 1 mL of saline solution containing heparin (5 U/mL) and indomethacin (10 μg/mL). The exudate and washing solution were removed by aspiration and the total volume measured. Any exudate contaminated with blood was discarded. The amount of exudate was calculated by subtracting the injected 1 mL volume from the total pleural cavity volume that was recovered. The neutrophils in the exudate were suspended in phosphate-buffer saline and counted with an optical microscope in a Burker's chamber after Trypan Blue staining. The results were analysed by one-way ANOVA followed by a Bonferroni post-hoc test for multiple comparisons. A p-value less than 0.05 was considered significant. For statistical analysis each group was compared to the control group of mice that were challenged with carrageenan-k and received no other treatment.
The table below describes the number of neutrophils from the treated animal groups relative to untreated control animals that were exposed to carrageenan-λ, but not treated with anything else (negative control group). The neutrophil number for the negative control group was set at 100% and other groups were compared to this.

NF-κB = assay: inhibition of NF-κB activation in NF-κB-bla THP-1 cells after LPS stimulation; type: cell-based, human; conditions: Homo sapiens, THP-1
From the text: Inhibition of NF-κB in vitro. […] Activation of NF-κB increases expression of a number of genes that mediate inflammation. This protocol used human THP-1 cells, which are human mononuclear blood cells with a monocyte phenotype. The cell line, referred to as NF-κB-bla THP-1, contained a β-lactamase reporter gene under the control of the NF-kB response element (Invitrogen, CellSensor™, product No. K1176). In this cell line, the β-lactamase reporter gene is stably integrated in the THP-1 cells. This cell line was used to detect agonists or antagonists of the NF-κB signaling pathway. These NF-κB-bla THP-1 cells respond to the presence of tumor necrosis factor alpha (TNFα) or bacterial lipopolysaccharide (LPS) by increased expression of the β-lactamase reporter gene. The level of β-lactamase enzyme activity was measured by fluorescence resonance energy transfer ratiometric detection. TNFα and LPS are both potent inflammation-inducing agents that activate NF-κB in THP1 cells. In this assay, compounds that decrease NF-κB activity, and thus β-lactamase, in the presence of TNFα or LPS are exerting an anti-inflammation activity.
The NF-κB-bla THP-1 cells were maintained by passaging or feeding as needed. […] The cells were plated at 20,000 cells/well in a 384-well Black-wall, clear bottom assay plates (Costar#3712-TC low fluorescence background plates) approximately 24 hours before adding either TNFα at 10 ng/mL or LPS at 0.2 ng/mL to activate NF-κB.
The assays were usually conducted 2-4 times for each compound and the values shown below are averages for each compound.

[2] = metabolic stability in liver microsomes, species not stated; conditions: compared with androst-5-ene-3β,17β-diol
Procedure: The protocol was performed as follows. […] (2) Set up samples as follows. […] (4) The internal standard/acetonitrile solution.

EAE = assay: experimental allergic encephalomyelitis (EAE), PLP 139-151; type: in vivo, female SJL/J mice; conditions: 5 mg/kg daily oral gavage; through day 26
From the text: Treatment of autoimmune neurodegeneration. Three compounds, 17β-aminoandrost-5-ene-3β-ol, 17β-dimethylaminoandrost-5-ene-3β-ol and 17β-methylaminoandrost-5-ene-3β-ol were characterized for their capacity to ameliorate experimental allergic encephalomyelitis (EAE) in mice. This demyelinating condition is extensively used as a model for multiple sclerosis in humans and for testing of new therapies for treating multiple sclerosis, e.g., B. F. Bebo Jr. et al., J. Neurosci. Res. 52:420-426 1998; R. R. Voskuhl et al., Neuroscientist, 7:258-270 2001; H. Offner et al., J. Neuroimmunol., 130:128-139 2002.
In this protocol, the compounds were administered to female SJL/J mice by oral gavage at the onset of disease symptoms. An antigen was used to initiate the EAE condition in the mice. […] Immunization with this peptide antigen initiates an autoimmune Thl mediated demyelinating disease of the central nervous system. The antigen was prepared by solid phase synthesis and purified by high-performance liquid chromatography. […] The immunization protocol was subcutaneous injection over four sites on the hind flank on day 0. After immunization. the mice were assessed daily for clinical signs of EAE using the following scale: 0=no clinical signs or symptoms; 1=limp tail; 2=mild hind limb weakness and limp tail; 3=moderate hind limb weakness and limp tail or mild ataxia; 4=severe hind limb weakness and mild forearm weakness with moderate ataxia; 5=paraplegia with no more than moderate forelimb weakness; 6=paraplegia with severe forelimb weakness or severe ataxia or moribund condition.
Mice in the vehicle control group began to show observable symptoms of EAE at about 10-11 days after immunization with the PLP antigen, which is typical for the EAE disease model. The animals were dosed daily with 17β-aminoandrost-5-ene-3β-ol, 17β-dimethylaminoandrost-5-ene-3β-ol or 17β-methylaminoandrost-5-ene-3β-ol by oral gavage beginning at day 1, which was 1 day after immunization.

[3] = system: human T lymphocytes (PBMC); assay: human mixed lymphocyte reaction (MLR); type: cell-based; conditions: 300 nM
From the text: Human mixed lymphocyte reaction (MLR). The capacity of 3β,16α-dihydroxy-17-oxoandrostane, 3β,17β-dihydroxy-16-oxoandrostane, 17α-ethynylandrost-5-ene-3β,7β,17β-triol, and 17β-aminoandrost-5-ene-3β-ol to affect antigen specific stimulation in which human T lymphocytes respond to a specific foreign antigen (major histocompatibility complex).
Blood samples were obtained from 3 (2 males, […]) fasting, healthy human volunteers of 23-31 years old. […] The subjects were bled between 9 and 10 AM to limit possible fluctuations in the circulating levels of hormones or cytokines that could have influenced the in vitro responses of their lymphocytes. Peripheral blood mononuclear cells (PBMC) were isolated by centrifugation on Ficoll-Hypaque (density 1.077, Biochrom AG, Berlin, Germany) gradients and resuspended in culture medium (RPMI 1640 supplemented with 2 mM L-glutamine, penicillin (100 U/mL) and streptomycin ([…]) (Invitrogen s.rl., Milan, Italy). Autologous (responder) inactivated plasma was used at 10%. Five hundred thousand responder PBMC (PBMCr) and 500,000 allogeneic irradiated (30 Gy) stimulator PBMC (PBMCs) were mixed at a ratio of 1:1 in 200 μL medium and cultured for 6 days in flat bottom 96 well plates (Nunc, Roskilde, Denmark) at a concentration of 300 nM or 30 nM for each of the 4 compounds. The compounds were dissolved in ethanol and then diluted to the desired concentration with culture medium leading to a final solution containing 0.01% of ethanol. This vehicle was used as control. Controls also included PBMCr and PBMCs cultured separately. During the last 8 hours of the culture period the PBMC were pulsed with […] [^3H] thymidine (Amersham, Milan, Italy). The cells were then harvested and radioactivity incorporation measured with a beta cell counter. The mean cpm of quadruplicate wells was calculated. Proliferation of T cells was expressed as a stimulation index: SI=cpm (PMBCs xPBMCr)/cpm (PBMCr)+cpm (PBMCs). Statistical analysis was performed using the Student's t test. The cpm obtained from quadruplicate of each test compound were compared to proliferative responses obtained in control PBMCr and PBMCs cultured in the presence of the vehicle. Differences were considered significant at p<0.05.

[4] = system: ionizing radiation exposure; assay: survival after lethal total body irradiation (10 Gy); type: in vivo, female B6D2F1 mice; conditions: 0.6 mg s.c. daily for 3 days
Procedure: Treatment of ionizing radiation exposure. The effect of selected F1Cs on survival of lethally-irradiated female B6D2F1 mice were compared to control animals treated with vehicle alone. […] For Group 4, test article was administered as a 50 μL volume, by intramuscular injection for three consecutive days. The formulation was a a suspension containing 0.1% w/v carboxymethyl-cellulose, 0.9% w/v sodium chloride and 0.05% v/v phenol. The formulations were agitated to uniformly resuspend the Fl C before syringing, and injected into animals within a few minutes of drawing into the syringe to prevent settling in the syringe.
The groups of animals were treated as follows. […] The number of surviving animals is shown for day 6, 7, 12 and 21.

| SMILES | number of neutrophils relative to negative control group (set at 100%) ([1]; 0.01 mg s.c. 24 h and 1 h before carrageenan-λ) | number of neutrophils relative to negative control group (set at 100%) ([1]; 0.1 mg s.c. 24 h and 1 h before carrageenan-λ) | IC50 (NF-κB) | rate of metabolism by microsomes [2] | anti-inflammation activity compared to vehicle controls ([1]; oral gavage, 1 mg and 0.1 mg (17α-ethynyl triol), 40 mg/kg (17β-amino compound)) | clinical severity of EAE symptoms (EAE) | immune suppression (inhibition of the MLR) [3] | number of surviving animals (groups of 12) ([4]; day 6) | number of surviving animals (groups of 12) ([4]; day 7) | number of surviving animals (groups of 12) ([4]; day 12) | number of surviving animals (groups of 12) ([4]; day 21) |
| --- | --- | --- | --- | --- | --- | --- | --- | --- | --- | --- | --- |
| C[C@]12CC[C@H]3[C@@H](CCC4C[C@H](O)CC[C@@]43C)[C@@H]1C[C@@H](O)[C@H]2O (stereo partly drawn) [3α,16α,17α-trihydroxyandrostane] | 45% | 30% | > 10 µM | metabolized by microsomes at a rate similar to the androst-5-ene-3β,17β-diol reference compound |  |  |  |  |  |  |  |
| C[C@]12CC[C@H]3[C@@H](CC=C4C[C@@H](O)CC[C@@]43C)[C@@H]1CC[C@@H]2N [17β-aminoandrost-5-ene-3β-ol] |  |  |  |  | statistically significant anti-inflammation activity | reduced the clinical severity | moderately immune suppressive | 12 | 12 | 12 | 11 |
| C[C@]12CC[C@H]3[C@@H](CC=C4C[C@@H](O)CC[C@@]43C)[C@@H]1C[C@@H](O)[C@@H]2O [androst-5-ene-3β,16α,17β-triol] |  |  |  | metabolized by microsomes at a rate similar to the androst-5-ene-3β,17β-diol reference compound |  |  |  |  |  |  |  |

— US20080221074A1, “Drug Screen and Treatment Method” (priority 2006, published 2008)
